Laboratory results published in ChEMBL document CHEMBL1201862, “PubChem BioAssay data set” (2004).
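In this assay, cells in 96-well plates receive the compound at five concentrations for 48 hours. Endpoints are linearly interpolated between the surrounding concentrations. Abbreviation: GI50, concentration required for 50% inhibition of growth.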 The source made the active and inactive calls. Rule as the data show it: active = GI50 up to about 1.1 µM and inactive = higher.

Key:
Assay in all cases: NCI anticancer screen, dose series, 48 h
[1] = system: A498
[2] = system: ACHN
[3] = system: BT-549
[4] = system: HCT-116
[5] = system: HOP-92
[6] = system: M14
[7] = system: MOLT-4
[8] = system: NCI-H460
[9] = system: NCI-H522
[10] = system: NCI/ADR-RES
[11] = system: OVCAR-4
[12] = system: OVCAR-5
[13] = system: PC-3
[14] = system: RPMI-8226
[15] = system: RXF 393
[16] = system: SK-MEL-2
[17] = system: SK-MEL-5
[18] = system: SNB-75
[19] = system: UACC-257

Which results are given for `CC(C)(C)OC(=O)N/C=C1\C(=O)Oc2ccccc2C1=O`?
GI50 [1]: 8.36 µM (inactive); GI50 [2]: 20.2 µM (inactive); GI50 [3]: 33.7 µM (inactive); GI50 [4]: 36 µM (inactive); GI50 [5]: 45.3 µM (inactive); GI50 [6]: 35.6 µM (inactive); GI50 [7]: > 100 µM (inactive); GI50 [8]: 33.2 µM (inactive); GI50 [9]: < 0.01 µM (active); GI50 [10]: 41.4 µM (inactive); GI50 [11]: 33 µM (inactive); GI50 [12]: 46.8 µM (inactive); GI50 [13]: 32.3 µM (inactive); GI50 [14]: > 100 µM (inactive); GI50 [15]: 23.2 µM (inactive); GI50 [16]: 14.6 µM (inactive); GI50 [17]: 26.1 µM (inactive); GI50 [18]: 23.5 µM (inactive); GI50 [19]: 31.3 µM (inactive)

Which results are given for `CC1(/C=C/CCSc2ccccc2)CC(=O)C2CC1C2(C)C` (stereo not drawn)?
GI50 [1]: 44.7 µM (inactive); GI50 [2]: 19 µM (inactive); GI50 [3]: 9.18 µM (inactive); GI50 [4]: 13 µM (inactive); GI50 [5]: 17.9 µM (inactive); GI50 [6]: 23.8 µM (inactive); GI50 [7]: 4.67 µM (inactive); GI50 [8]: 17.3 µM (inactive); GI50 [9]: 13 µM (inactive); GI50 [10]: 11 µM (inactive); GI50 [11]: 38.5 µM (inactive); GI50 [12]: 44.9 µM (inactive); GI50 [13]: 6.08 µM (inactive); GI50 [14]: 3.79 µM (inactive); GI50 [15]: 29.3 µM (inactive); GI50 [16]: 14.3 µM (inactive); GI50 [17]: 8.71 µM (inactive); GI50 [18]: 11.2 µM (inactive); GI50 [19]: 14.7 µM (inactive)

With `Cn1c2ccccc2c(=O)c2c(O)cc3c(c21)C=CC1(CCCCC1)O3` as the compound, how does the GI50 [1] read?
The GI50 was > 10 µM (inactive).

What about the GI50 [2] of the same compound?
Its GI50 is > 10 µM (inactive).

And the GI50 [3]?
The GI50 was 2.08 µM (inactive).

What about the GI50 [4] of the same compound?
Its GI50 is > 10 µM (inactive).

And the GI50 [5]?
Its GI50 is > 10 µM (inactive).

What about the GI50 [6] of the same compound?
The GI50 was > 10 µM (inactive).

And the GI50 [7]?
The GI50 was > 10 µM (inactive).

And the GI50 [8]?
Its GI50 is > 10 µM (inactive).

What about the GI50 [9] of the same compound?
The GI50 was > 10 µM (inactive).

And the GI50 [10]?
The GI50 was > 10 µM (inactive).

And the GI50 [11]?
Its GI50 is > 10 µM (inactive).

What about the GI50 [12] of the same compound?
The GI50 was 7.18 µM (inactive).

And the GI50 [13]?
The GI50 was > 10 µM (inactive).

What about the GI50 [14] of the same compound?
The GI50 was > 10 µM (inactive).

And the GI50 [15]?
The GI50 was > 10 µM (inactive).

And the GI50 [16]?
Its GI50 is > 10 µM (inactive).

And the GI50 [17]?
The GI50 was > 10 µM (inactive).

What about the GI50 [18] of the same compound?
The GI50 was > 10 µM (inactive).

What about the GI50 [19] of the same compound?
The GI50 was > 10 µM (inactive).

How did the GI50 [1] turn out when `CC(C)SC1SCC2C(=O)N(C)C3(CC3C)C(=O)OCC(NC(=O)c3nc4ccccc4cc3O)C(=O)NC(C)C(=O)N(C)C1C(=O)N(C)C1(CC1C)C(=O)OCC(NC(=O)c1nc3ccccc3cc1O)C(=O)NC(C)C(=O)N2C` (stereo not drawn) was run?
The GI50 was < 0.0001 µM (active).

And the GI50 [2]?
The GI50 was < 0.0001 µM (active).

What about the GI50 [3] of the same compound?
The GI50 was 0.01 µM (active).

And the GI50 [4]?
The GI50 was < 0.0001 µM (active).

And the GI50 [5]?
Its GI50 is < 0.0001 µM (active).

And the GI50 [6]?
The GI50 was < 0.0001 µM (active).

And the GI50 [7]?
Its GI50 is < 0.0001 µM (active).

What about the GI50 [8] of the same compound?
The GI50 was < 0.0001 µM (active).

What about the GI50 [9] of the same compound?
The GI50 was < 0.0001 µM (active).

What about the GI50 [10] of the same compound?
Its GI50 is 0.00446 µM (active).

What about the GI50 [11] of the same compound?
Its GI50 is < 0.0001 µM (active).

What about the GI50 [12] of the same compound?
The GI50 was < 0.0001 µM (active).

What about the GI50 [13] of the same compound?
The GI50 was < 0.0001 µM (active).

And the GI50 [14]?
The GI50 was < 0.0001 µM (active).

What about the GI50 [15] of the same compound?
Its GI50 is < 0.0001 µM (active).

What about the GI50 [16] of the same compound?
The GI50 was < 0.0001 µM (active).

What about the GI50 [17] of the same compound?
The GI50 was < 0.0001 µM (active).

And the GI50 [18]?
Its GI50 is < 0.0001 µM (active).

And the GI50 [19]?
The GI50 was < 0.0001 µM (active).

With `C=C1C(=O)O[C@@H]2/C=C(\C)CC/C=C(/COC(C)=O)C[C@@H](OC(C)=O)[C@@H]12` as the compound, how does the GI50 [1] read?
The GI50 was 19 µM (inactive).

And the GI50 [2]?
Its GI50 is 4.38 µM (inactive).

What about the GI50 [3] of the same compound?
Its GI50 is 3.91 µM (inactive).

And the GI50 [4]?
The GI50 was 3.85 µM (inactive).

And the GI50 [5]?
Its GI50 is 7.73 µM (inactive).

What about the GI50 [6] of the same compound?
Its GI50 is 12.6 µM (inactive).

And the GI50 [7]?
The GI50 was 3.45 µM (inactive).

What about the GI50 [8] of the same compound?
Its GI50 is 12.1 µM (inactive).

What about the GI50 [9] of the same compound?
The GI50 was 1.16 µM (inactive).

What about the GI50 [10] of the same compound?
The GI50 was 17.9 µM (inactive).

What about the GI50 [11] of the same compound?
Its GI50 is 20.2 µM (inactive).

What about the GI50 [12] of the same compound?
The GI50 was 17.4 µM (inactive).

And the GI50 [13]?
The GI50 was 16.1 µM (inactive).

And the GI50 [14]?
Its GI50 is 3.39 µM (inactive).

What about the GI50 [15] of the same compound?
The GI50 was 9.38 µM (inactive).

And the GI50 [16]?
The GI50 was 16 µM (inactive).

And the GI50 [17]?
Its GI50 is 11.6 µM (inactive).

And the GI50 [18]?
Its GI50 is 50.1 µM (inactive).

What about the GI50 [19] of the same compound?
Its GI50 is 13.4 µM (inactive).

Which results are given for `COC1Cc2c(C)c(OC(C)=O)c3cccnc3c2O1` (stereo not drawn)?
GI50 [1]: > 100 µM (inactive); GI50 [2]: 7.11 µM (inactive); GI50 [3]: 19.7 µM (inactive); GI50 [4]: 34.9 µM (inactive); GI50 [5]: 18.6 µM (inactive); GI50 [6]: 14.5 µM (inactive); GI50 [7]: 13.8 µM (inactive); GI50 [8]: 25.4 µM (inactive); GI50 [9]: 2.75 µM (inactive); GI50 [10]: 17.6 µM (inactive); GI50 [11]: 16 µM (inactive); GI50 [12]: 18.2 µM (inactive); GI50 [13]: 36.7 µM (inactive); GI50 [14]: 28.6 µM (inactive); GI50 [15]: 14.9 µM (inactive); GI50 [16]: 13.9 µM (inactive); GI50 [17]: 15.3 µM (inactive); GI50 [18]: 17.4 µM (inactive); GI50 [19]: 16 µM (inactive)

Which GI50 [1] does the source give for `CCOC(=O)N1CCN(c2nc(C)n(-c3ccccc3)c(=S)c2C#N)CC1` here?
The GI50 was > 100 µM (inactive).

What about the GI50 [2] of the same compound?
Its GI50 is > 65 µM (inactive).

And the GI50 [3]?
The GI50 was > 51.9 µM (inactive).

What about the GI50 [4] of the same compound?
The GI50 was > 68.2 µM (inactive).

What about the GI50 [5] of the same compound?
Its GI50 is > 65.9 µM (inactive).

And the GI50 [6]?
Its GI50 is > 91 µM (inactive).

And the GI50 [7]?
Its GI50 is > 40.1 µM (inactive).

And the GI50 [8]?
Its GI50 is 52.7 µM (inactive).

What about the GI50 [9] of the same compound?
Its GI50 is > 34.9 µM (inactive).

What about the GI50 [10] of the same compound?
The GI50 was 30 µM (inactive).

What about the GI50 [11] of the same compound?
Its GI50 is 44.1 µM (inactive).

What about the GI50 [12] of the same compound?
The GI50 was > 100 µM (inactive).

What about the GI50 [13] of the same compound?
Its GI50 is > 43.4 µM (inactive).

What about the GI50 [14] of the same compound?
The GI50 was > 62.7 µM (inactive).

And the GI50 [15]?
The GI50 was > 95.9 µM (inactive).

What about the GI50 [16] of the same compound?
Its GI50 is > 76.4 µM (inactive).

What about the GI50 [17] of the same compound?
Its GI50 is > 100 µM (inactive).

What about the GI50 [18] of the same compound?
The GI50 was 37.2 µM (inactive).

And the GI50 [19]?
Its GI50 is > 86.9 µM (inactive).
